These results are taken from PMC7565988, “Insight into the Anticancer Activity of Copper(II) 5-Methylenetrimethylammonium-Thiosemicarbazonates and Their Interaction with Organic Cation Transporters” (Biomolecules, 2020).

Series [1] relates to Colo 205 doxorubicin-sensitive colonic adenocarcinoma cells. Briefly: MTT cytotoxicity (24 h) / antiproliferation (72 h) assay. Type of series: cell-based, human. To be noted: read-out: Colo205 IC50. The procedure: Human doxorubicin-sensitive Colo 205 (ATCC-CCL-222) and multidrug resistant Colo 320 (overexpressing ABCB1 (MDR1)-LRP (ATCC-CCL-220.1)) colonic adenocarcinoma cell lines were purchased from LGC Promochem, Teddington, UK. The cells were cultured in RPMI 1640 medium supplemented with 10% heat-inactivated fetal bovine serum, 2 mM L-glutamine, 1 mM Na-pyruvate and 100 mM Hepes. The cell lines were incubated at 37 °C, in a 5% CO2, 95% air atmosphere. The semi-adherent human colon cancer cells were detached with Trypsin-Versene (EDTA) solution for 5 min at 37 °C.
(§1) In the study non-cancerous human embryonic lung fibroblast MRC-5, human colonic adenocarcinoma cell line (doxorubicin-sensitive Colo 205, multidrug resistant Colo 320) and neuroblastoma cell line SH-SY5Y were used to determine the effect of compounds on cell growth. The effects of increasing concentrations of compounds on cell growth were tested in 96-well flat-bottomed microtiter plates. The compounds were diluted in a volume of 100 μL of medium.
In case of the colonic adenocarcinoma cells, the two-fold serial dilutions of compounds were prepared in 100 μL of RPMI 1640, horizontally. The semi-adherent colonic adenocarcinoma cells were treated with Trypsin–Versene (EDTA) solution. The cells were adjusted to a density of 2 × 10^4 cells in 100 μL of RPMI 1640 medium, and were added to each well, with the exception of the medium control wells. The final volume of the wells containing compounds and cells was 200 μL.
(§2) The culture plates were incubated at 37 °C for 24 h; at the end of the incubation period, 20 μL of MTT (thiazolyl blue tetrazolium bromide, Sigma) solution (from a stock solution of 5 mg/mL) were added to each well. After incubation at 37 °C for 4 h, 100 μL of sodium dodecyl sulfate (SDS) (Sigma) solution (10% in 0.01 M HCI) were added to each well and the plates were further incubated at 37 °C overnight. Cell growth was determined by measuring the optical density (OD) at 540/630 nm with Multiscan EX ELISA reader (Thermo Labsystems, Cheshire, WA, USA). […] Curves were fitted by GraphPad Prism software using the sigmoidal dose-response model (comparing variable and fixed slopes).
(§3) The method is similar to the one described in the assay for cytotoxic effect. […] The culture plates were incubated at 37 °C for 72 h and after the incubation time, the plates were stained with MTT according to the previous experimental protocol described for the cytotoxicity assay.

The test system of series [2] is SH-SY5Y neuroblastoma cells. Described as above. Type of series: cell-based, human. To be noted: MTT. The procedure:
SH-SY5Y (ATCC® CRL-2266™) neuroblastoma cell line was purchased from LGC Promochem, Teddington, UK. The cell line was cultured in Eagle’s Minimal Essential Medium (EMEM, containing 4.5 g/L glucose) supplemented with a non-essential amino acid mixture, a selection of vitamins and 10% heat-inactivated foetal bovine serum. The cell line was incubated at 37 °C, in a 5% CO2, 95% air atmosphere.
as §1
The adherent human embryonal lung fibroblast and SH-SY5Y neuroblastoma cells were cultured in 96-well flat-bottomed microtiter plates, using EMEM supplemented with 10% heat-inactivated foetal bovine serum. The density of the cells was adjusted to 2 × 10^4 cells in 100 μL per well, the cells were seeded for 24 h at 37 °C, 5% CO2, then the medium was removed from the plates containing the cells, and the dilutions of compounds previously made in a separate plate were added to the cells in 200 μL.
as §2, §3

Series [3] concerns the target T1, OCT2 (Homo sapiens, UniProt O15244).
T1 construct: expressed in transfected cells
T1 sequence (O15244 1-555): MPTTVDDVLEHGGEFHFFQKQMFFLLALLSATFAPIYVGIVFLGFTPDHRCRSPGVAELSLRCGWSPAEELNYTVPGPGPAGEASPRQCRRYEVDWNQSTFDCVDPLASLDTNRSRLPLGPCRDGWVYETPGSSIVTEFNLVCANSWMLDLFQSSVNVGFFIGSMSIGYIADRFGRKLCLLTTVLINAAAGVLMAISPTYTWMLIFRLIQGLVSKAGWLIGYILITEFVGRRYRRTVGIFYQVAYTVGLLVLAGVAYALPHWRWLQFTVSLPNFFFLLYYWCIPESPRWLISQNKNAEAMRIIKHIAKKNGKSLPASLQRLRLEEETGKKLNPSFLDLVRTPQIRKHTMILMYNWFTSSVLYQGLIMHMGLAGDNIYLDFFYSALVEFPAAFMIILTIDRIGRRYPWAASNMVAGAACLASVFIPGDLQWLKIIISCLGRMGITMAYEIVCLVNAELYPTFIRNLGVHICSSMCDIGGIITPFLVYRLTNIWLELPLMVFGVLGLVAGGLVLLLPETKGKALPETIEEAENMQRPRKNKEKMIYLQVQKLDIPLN
Further details: method as in PMID 14576340. To be noted: reference inhibitor; cited from earlier work.

The target in series [4] is T2, OCT3 (Homo sapiens, UniProt O75751).
T2 construct: expressed in transfected cells
T2 sequence (O75751 1-556): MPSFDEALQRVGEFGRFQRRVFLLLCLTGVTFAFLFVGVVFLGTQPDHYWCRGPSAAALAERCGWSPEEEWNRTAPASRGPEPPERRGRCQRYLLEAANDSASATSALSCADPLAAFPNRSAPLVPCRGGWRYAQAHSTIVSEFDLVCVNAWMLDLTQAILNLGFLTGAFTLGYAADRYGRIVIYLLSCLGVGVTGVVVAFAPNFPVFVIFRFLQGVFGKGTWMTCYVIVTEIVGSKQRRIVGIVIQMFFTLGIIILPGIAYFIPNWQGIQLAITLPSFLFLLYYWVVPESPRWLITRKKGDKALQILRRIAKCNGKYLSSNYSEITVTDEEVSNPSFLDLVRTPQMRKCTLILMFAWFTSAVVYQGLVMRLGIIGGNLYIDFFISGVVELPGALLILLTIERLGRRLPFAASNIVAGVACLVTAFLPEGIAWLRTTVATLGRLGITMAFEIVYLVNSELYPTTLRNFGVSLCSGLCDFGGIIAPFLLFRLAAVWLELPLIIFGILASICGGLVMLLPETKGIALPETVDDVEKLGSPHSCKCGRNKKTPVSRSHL
More on the design: method as in PMID 14576340. To be noted: reference inhibitor; cited from earlier work.

Series [5] addresses T3, OCT1 (Homo sapiens, UniProt O15245).
T3 construct: expressed in transfected cells
T3 sequence (O15245 1-554): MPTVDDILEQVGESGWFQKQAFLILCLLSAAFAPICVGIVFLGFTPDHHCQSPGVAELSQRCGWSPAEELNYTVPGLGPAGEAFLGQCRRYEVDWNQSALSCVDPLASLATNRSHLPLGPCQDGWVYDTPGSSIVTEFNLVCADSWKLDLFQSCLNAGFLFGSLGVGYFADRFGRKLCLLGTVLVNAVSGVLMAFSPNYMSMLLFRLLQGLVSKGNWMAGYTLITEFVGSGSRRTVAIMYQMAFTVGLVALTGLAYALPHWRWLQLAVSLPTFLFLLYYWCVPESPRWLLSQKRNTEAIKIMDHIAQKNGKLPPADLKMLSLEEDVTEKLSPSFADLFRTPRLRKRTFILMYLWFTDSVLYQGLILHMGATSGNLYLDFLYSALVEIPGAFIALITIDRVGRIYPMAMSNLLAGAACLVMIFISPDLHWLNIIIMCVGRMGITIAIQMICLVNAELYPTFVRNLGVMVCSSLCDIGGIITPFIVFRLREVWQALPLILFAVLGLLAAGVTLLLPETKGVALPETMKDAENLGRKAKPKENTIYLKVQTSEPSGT
More on the design: method as in PMID 14576340. To be noted: reference inhibitor; cited from earlier work.

On the set-up of series [6]: method as in doi:10.1002/ejic.201200360. Particulars: pure water; cited from earlier work.
On the set-up of series [7]: method as in doi:10.1002/ejic.201200360. To be noted: pH 7.4; cited from earlier work.

Where two headings read alike, the source gives them in different places.

For the compound `N.N.[Cl][Pt][Cl]` [Cisplatin, reference compound], the IC50 was found to be 68800 ± 5080 nM in series [1] (24 h exposure), 8140 ± 1590 nM in series [1] (72 h exposure), 26000 ± 2380 nM in series [2] (24 h exposure) and 650 ± 80 nM in series [2] (72 h exposure).

Regarding `CCN1/C(=C/c2ccc3ccccc3[n+]2CC)C=Cc2ccccc21` [D-22, decynium-22], the results for the IC50 in series [3], in series [4] and in series [5] were 1130 ± 190 nM, 90 ± 10 nM and 980 ± 310 nM, respectively.

Regarding `NC(=S)N/N=C/c1ccccc1O` [STSC, salicylaldehyde thiosemicarbazone], in series [6], the “pKa of the phenolic OH moiety” value was 8.88. Moreover, the logD7.4 entry in series [7] is on record as “+1.74”.
